Results published in patent US10233209B2, “Inhibitors of the farnesoid x receptor and uses in medicine” (The United States of America, as represented by the …, priority 2013, dated 2019).

Legend:
HFD-induced NAFLD model = experiment: HFD-induced NAFLD model: liver histology, liver weight, triglycerides (tempol, antibiotic); assay type: in vivo, mouse
From the text: High-fat diet (HFD) (60% kcal consisting of fat) was purchased from Bioserv. […] Fxr^fl/fl and Fxr^ΔIE (Kim et al., J. Lipid Res. 48:2664-2672, 2007) mice were backcrossed with C57BL/6N mice for over 10 generations. For the antibiotic (the combination of bacitracin, neomycin, and streptomycin) study, male C57BL/6N mice from 6 weeks of age were fed a high-fat diet (“HFD) and administered 0.1% (w/v) of each compound (the combination of bacitracin, neomycin, and streptomycin) in the drinking water. […] For TβMCA in vivo, male C57BL/6N mice from 6 weeks of age were fed a HFD and treated with the antibiotics (0.1% of each compound of bacitracin, neomycin, and streptomycin combination) for 3 days. Vehicle (saline), TCA (400 mg/kg body weight, dissolved in saline) or a combination of TCA and TβMCA (400 mg/kg body weight of each compound, dissolved in saline) were orally administered to the mice and followed by a second dose 12 h later. The mice were killed 2 h later for tissue collection. For the Gly-MCA study, Gly-MCA was custom synthesized. Bacon-flavored dough pills were produced as described (Walker et al., Toxicol. Appl. Pharmacol. 260:65-69, 2012) for oral administration of Gly-MCA (0.25 mg Gly-MCA/pill, dose of 10 mg/kg). Mice were trained to eat the dough pills prior to the study. For the prevention of obesity, insulin resistance and NAFLD, male wild-type (WT) C57BL/6N mice, 6- to 8-weeks-old, were fed a high-fat diet (Bio-Serv, Frenchtown, N.J.; 60 kcal % fat) from the age of 6 weeks and were orally administered with vehicle (control pills) or Gly-MCA (0.25 mg/pill/day, dose 10 mg/kg). C57BL/6N mice fed a high-fat diet for 12 weeks were administered (0.25 mg Gly-MCA/pill, dose of 5 mg/kg). Leptin-deficient db/db mice, 6- to 8-weeks-old, fed a chow diet, were administered Gly-MCA (0.25 mg/pill/day, 10 mg/kg). Mice were housed individually in their home cages. Cumulative food intake and TEEbal were measured for 1 week in vehicle and Gly-MCA-treated mice from 6 to 7 weeks of HFD. TEEbal was measured as previously described (Ravussin et al., Int. J. Obesity 37:399-403, 2013).
Hematoxylin and eosin (H&E) staining were performed on formalin fixed paraffin embedded sections using a standard protocol. Oil red 0 staining was performed on frozen liver sections using a standard protocol. At least three discontinuous liver sections were evaluated for each mouse.
Hepatic lipids were extracted using a 2:1 chloroform-methanol solution. Liver triglycerides were measured with a triglyceride colorimetric assay kit, according to the manufacturer's recommendation (Bioassay Systems, Hayward, Calif.).

SREBP1c-CIDEA pathway = experiment: liver mRNA and protein expression (qPCR, western blot); assay type: in vivo, mouse; conditions: for protein levels of mature nuclear SREBP1 and CIDEA in the liver: HFD 16 weeks
Procedure: (§1) The mucosa of intestine was gently scraped and liver was taken and both were flash frozen in liquid nitrogen and stored at −80° C. until RNA was prepared. RNA was extracted from frozen intestine and liver using TRIzol reagent (Invitrogen, Carlsbad, Calif.). cDNA was synthesized from 1 μg total RNA using Superscript II reverse transcriptase (Invitrogen, Carlsbad, Calif.). qPCR primers were designed with qPrimerDepot. Measured mRNA levels were normalized to those of 18S ribosomal RNA and expressed as fold change relative to those of control group.
(§2) Liver whole-cell or nuclear extracts were prepared. Membranes were incubated with antibodies against FXR (Santa Cruz Biotechnology, Inc., Santa Cruz, Calif.), SREBP1 (BD Biosciences, San Jose, Calif.), and CIDEA (Abcam, Cambridge, Mass.). The signals obtained were normalized to β-ACTIN (Abcam) for whole cell extract and LAMIN A/C (Santa Cruz) for nuclear extracts.

[1] = system: bile salt hydrolase (BSH); experiment: fecal bile salt hydrolase activity; assay type: in vivo, mouse; conditions: tempol vs vehicle
Procedure: Fecal proteins were prepared from feces samples (0.5 g) in pH 7.4 phosphate buffered saline (PBS, 5.0 mL) using sonication. […] Briefly, incubation was carried out in 3 mM sodium acetate buffer, pH 5.2, containing 0.1 mg/ml fecal protein and 50 μM TCDCA-d5 in a final volume of 200 μL. After a 20 min incubation at 37° C., the reaction was stopped by plunging the samples into dry ice. 100 μL of acetonitrile was directly added to the reaction mix. After centrifuging at 14,000×g for 20 min, 5 μL of the supernatant was transferred to an auto sampler vial subjected to analysis by a UPLC system coupled with a XEVO triple quadrupole tandem mass spectrometer (Waters Corp., Milford, Mass.).

[2] = system: high-fat diet-treated Fxr^fl/fl and Fxr^ΔIE mice; experiment: body mass gain of tempol-treated mice on a high-fat diet; assay type: in vivo, mouse; conditions: high-fat diet 10 weeks
From the text: High-fat diet (HFD) (60% kcal consisting of fat) was purchased from Bioserv. […] Fxr^fl/fl and Fxr^ΔIE (Kim et al., J. Lipid Res. 48:2664-2672, 2007) mice were backcrossed with C57BL/6N mice for over 10 generations. For the antibiotic (the combination of bacitracin, neomycin, and streptomycin) study, male C57BL/6N mice from 6 weeks of age were fed a high-fat diet (“HFD) and administered 0.1% (w/v) of each compound (the combination of bacitracin, neomycin, and streptomycin) in the drinking water. […] For TβMCA in vivo, male C57BL/6N mice from 6 weeks of age were fed a HFD and treated with the antibiotics (0.1% of each compound of bacitracin, neomycin, and streptomycin combination) for 3 days. Vehicle (saline), TCA (400 mg/kg body weight, dissolved in saline) or a combination of TCA and TβMCA (400 mg/kg body weight of each compound, dissolved in saline) were orally administered to the mice and followed by a second dose 12 h later. The mice were killed 2 h later for tissue collection. For the Gly-MCA study, Gly-MCA was custom synthesized. […] Cumulative food intake and TEEbal were measured for 1 week in vehicle and Gly-MCA-treated mice from 6 to 7 weeks of HFD. TEEbal was measured as previously described (Ravussin et al., Int. J. Obesity 37:399-403, 2013). […]

primary hepatocytes = experiment: ceramide treatment of cultured primary hepatocytes; assay type: cell-based, mouse
Procedure: Primary hepatocytes from 6-week-old C57BL/6N mice were obtained by collagenase 1 (Invitrogen, Carlsbad, Calif.) perfusion. The cells were purified by 45% Percoll (Sigma, St. Louis, Mo.) density centrifugation and cultured in DMEM (Invitrogen, Carlsbad, Calif.) with 10% fetal bovine serum and 1% Insulin-Transferrin-Selenium-Ethanolamine (ITS-X) (Invitrogen, Carlsbad, Calif.). The viability of hepatocytes was determined using trypan blue dye exclusion, and those with higher than 85% viability were used. The medium was changed to DMEM with 1% fetal bovine serum after culturing for 4 hours. After starvation for 4 hours, the cells were exposed to ceramide. At the prescribed time points, cells were harvested and subjected to qPCR analysis and TG content detection.
as §1, §2

| Molecule | liver weights (HFD-induced NAFLD model; Fxr^fl/fl mice, HFD) | hepatic lipid droplets (liver histology) (HFD-induced NAFLD model; Fxr^fl/fl mice, HFD 14 weeks (antibiotic) and 16 weeks (tempol)) | hepatic lipid (liver histology) (HFD-induced NAFLD model; Fxr^ΔIE mice, HFD) | hepatic triglyceride content (hepatic steatosis) (HFD-induced NAFLD model; Fxr^ΔIE mice, HFD) | liver weights (HFD-induced NAFLD model; HFD) | hepatic triglyceride (TG) contents decreased to (HFD-induced NAFLD model; HFD, relative to vehicle) | hepatic lipid droplets (liver histology) (HFD-induced NAFLD model; tempol: HFD 16 weeks, antibiotic: HFD 7 weeks) | protein levels of mature nuclear SREBP1 and CIDEA in the liver (SREBP1c-CIDEA pathway; Fxr^ΔIE mice treated with tempol) | inflammation-related genes (Tlr2, Tlr4, Tlr9, Tnfα) mRNA in liver (SREBP1c-CIDEA pathway; HFD 7 weeks) | protein levels of mature nuclear SREBP1 and CIDEA in the liver (SREBP1c-CIDEA pathway; tempol-treated Fxr^fl/fl mice) | bile salt hydrolase (BSH) enzymatic activity in the feces [1] | weight gain less than that of vehicle treated mice ([2]; Fxr^fl/fl mice) | weight gain vs vehicle ([2]; Fxr^ΔIE mice) | mRNA of fatty acid synthesis and TG formation genes (Srebp1c, Cidea, Elovl6, Dgat2) (primary hepatocytes; 16 hours, 2, 5, 10 μM ceramide) | mRNA of fatty acid β-oxidation genes (Cpt1, Acox1, Ehhadh, Acaa1a) (primary hepatocytes; 16 hours, 2, 5, 10 μM ceramide) | triglyceride contents in primary hepatocytes (primary hepatocytes; 24 hours, 2, 5, 10 μM ceramide) | protein levels of nuclear SREBP1-N and CIDEA (primary hepatocytes; ceramide 2 μM and 10 μM, 24 hours) |
| --- | --- | --- | --- | --- | --- | --- | --- | --- | --- | --- | --- | --- | --- | --- | --- | --- | --- |
| CC1(C)CC(O)CC(C)(C)N1[O] [tempol, 4-hydroxy-2,2,6,6,-tetramethylpiperidine-1-oxyl] | significantly reduced | decreased hepatic lipid droplets | no changes in hepatic lipid | did not alleviate hepatic steatosis | decreased | ~35% | significant reduction in hepatic lipid droplets | no decrease | comparable | significantly reduced | significant downregulation | approximately 65% | insignificant difference in weight gain | – | – | – | – |
| ceramide | – | – | – | – | – | – | – | – | – | – | – | – | – | significantly upregulated | not affected | significantly increased triglyceride contents | significantly induced |
